Read-outs that look alike come from different tables or passages of the source.
How the values were obtained:
[1] = Rate of dermal penetration, deuterated versus non-deuterated tolterodine (general statement); format: in vitro ADME; settings: compared with non-deuterated tolterodine
[2] = oral application, cited from earlier work

[2H]C([2H])([2H])c1ccc(O)c(C(CCN(C(C)C)C(C)C)c2ccccc2)c1 (stereo not drawn) [deuterated tolterodine, 2-(3-diisopropylamino-1-phenylpropyl)-4-[^2H3]methyl-phenol]
rate of dermal penetration [1]: considerably increased

Cc1ccc(O)c(C(CCN(C(C)C)C(C)C)c2ccccc2)c1 (stereo not drawn) [tolterodine, N,N-diisopropyl-3-(2-hydroxy-5-methylphenyl)-3-phenylpropylamine]
absolute bioavailability ([2]; rapid metabolisers): 17%
absolute bioavailability ([2]; slow metabolisers): 65%

— patent US6783769B1, “Transdermal therapeutic system TTS containing tolterodine” (Schwarz Pharma AG, priority 1999, dated 2004)
